Assays:
[1] = test system: MRC-5 lung fibroblasts; test: Fibroblast survival assay (FSA); assay type: cell-based; conditions: Homo sapiens, MRC5; read-out: IC50 of protection of fibroblasts
[2] = test system: Mtb-infected THP-1 macrophages; assay type: cell-based, human
[3] = test system: Mtb culture filtrate proteins; test: Secretome analysis of culture filtrate (LC/MS-MS); assay type: cell-based, Mycobacterium tuberculosis; conditions: 5 μM
Experimental: For the secretome analysis 10 μg of protein was reconstituted in 200 μl of 4 M Urea, 10% acetonitrile and buffered with Tris-HCl pH 8.5 to a final concentration of 30 mM. Proteins were reduced in 10 mM dithioerythritol (DTE) at 37° C. for 60 min. and then alkylated in 40 mM iodoacetamide at 37° C. for 45 min. Reactions were quenched by addition of DTE to a final concentration of 10 mM. First, protein digestion was performed using Lys-C (1:50 enzyme:protein) for 2 hours at 37° C. The lysates were then diluted 5-fold and a second digestion was performed overnight at 37° C. using mass spectrometry grade trypsin gold (1:50 enzyme:protein) and 10 mM CaCl2. Reactions were stopped by addition of 8 μl of pure formic acid and peptides were concentrated by vacuum centrifugation to a final volume of 70 μl.
• After digestions, samples were dimethyl-labeled as described previously (Boersema et al., 2009). […]
• Each SAX fraction was resuspended in 2% acetonitrile, 0.1% FA and loaded on a capillary pre-column (Magic AQ C18; 3 μm by 200 Å; 2 cm×100 μm ID). […] Relative quantification within different conditions was obtained calculating the significance B values for each of the identified proteins using Perseus (Cox et al., 2009).

[4] = test system: mycobacterial outer membrane permeability; test: Ethidium bromide (EtBr) uptake assay; assay type: cell-based, Mycobacterium tuberculosis; conditions: 10 μM
Experimental: Bacteria were grown for 24 hours in the presence of test compounds. The BacTiter-Glo microbial cell viability reagent (Promega) was used for the quantification of ATP according to the recommendations of the manufacturer. For EtBr uptake assays, bacteria were washed with PBS containing 0.05% Tween 80, OD600 was adjusted to 0.4 and 100 μl were pipetted into black 96 well plates. EtBr was added (4 μM final concentration) and fluorescence was read every 2 min. at 545/600 nm. Unpaired Student's T-tests were used for statistical analyses.
To investigate whether BBH7 alters mycobacterial outer membrane permeability, which might explain the transcriptomic pattern associated with metal-ion toxicity, the Applicant performed ethidium bromide (EtBr) uptake assays after treatment with the compounds of interest. These assays identify altered outer membrane permeability by an increase of fluorescence after binding of EtBr to bacterial nucleic acids. […] This was not observed with BTP15.

[5] = test system: Ag85 complex proteins; assay type: cell-based, Mycobacterium tuberculosis; conditions: 5 μM

SMILES: CSC(=S)N/N=C(\C)c1ccc(OCc2ccc(F)cc2F)cc1 [BBH7, N′-{1-[4-(2,4-Difluoro-benzyloxy)-phenyl]ethylidene}-hydrazinecarbodithioic acid methyl ester]
- IC50 [1]: 2400 nM
- rate of bacteria in acidic compartments (Lysotracker Red co-localization) [2]: significantly higher rate
- reduction of total culture filtrate protein [3]: 50%
- abundance of ESX-5 substrates (EsxN/EsxM, PE25, PPE41) in culture filtrate ([3]; LC-MS/MS): significantly reduced in abundance
- EtBr accumulation and fluorescence [4]: increases EtBr accumulation and fluorescence
- Ag85 secretion [5]: fully blocked
